Measured values reported in ChEMBL document CHEMBL5528046, “Discovery of Novel PROTAC Degraders of p300/CBP as Potential Therapeutics for Hepatocellular Carcinoma” (J Med Chem, 2024).
Calls of active or inactive are those of the source. No cut-off for these calls is given here.

Target: CREB-binding protein/Histone acetyltransferase p300 (Homo sapiens, UniProt Q09472+Q92793)
Test: Inhibition of p300/CBP (unknown origin) using histone H3 (1 to 21 residues) as substrate incubated for 90 mins by AlphaLISA assay
Assay type: protein assay
Settings: not given

`CC(=O)N1CCC(n2c([C@@H]3CCCC(=O)N3c3ccc(F)c(F)c3)nc3cc(-c4c(C)noc4C)ccc32)CC1` and `CC(=O)N1CC(n2c([C@@H]3CCCC(=O)N3c3ccc(F)c(F)c3)nc3cc(-c4c(C)noc4C)ccc32)C1` are within 1.5-fold of each other in IC50: 0.026 µM for the first, 0.025 µM for the second.

Target: T1, Protein cereblon/Histone acetyltransferase p300 (Homo sapiens, UniProt Q09472+Q96SW2)
T1 sequence (Q09472 2-2414 limits assumed): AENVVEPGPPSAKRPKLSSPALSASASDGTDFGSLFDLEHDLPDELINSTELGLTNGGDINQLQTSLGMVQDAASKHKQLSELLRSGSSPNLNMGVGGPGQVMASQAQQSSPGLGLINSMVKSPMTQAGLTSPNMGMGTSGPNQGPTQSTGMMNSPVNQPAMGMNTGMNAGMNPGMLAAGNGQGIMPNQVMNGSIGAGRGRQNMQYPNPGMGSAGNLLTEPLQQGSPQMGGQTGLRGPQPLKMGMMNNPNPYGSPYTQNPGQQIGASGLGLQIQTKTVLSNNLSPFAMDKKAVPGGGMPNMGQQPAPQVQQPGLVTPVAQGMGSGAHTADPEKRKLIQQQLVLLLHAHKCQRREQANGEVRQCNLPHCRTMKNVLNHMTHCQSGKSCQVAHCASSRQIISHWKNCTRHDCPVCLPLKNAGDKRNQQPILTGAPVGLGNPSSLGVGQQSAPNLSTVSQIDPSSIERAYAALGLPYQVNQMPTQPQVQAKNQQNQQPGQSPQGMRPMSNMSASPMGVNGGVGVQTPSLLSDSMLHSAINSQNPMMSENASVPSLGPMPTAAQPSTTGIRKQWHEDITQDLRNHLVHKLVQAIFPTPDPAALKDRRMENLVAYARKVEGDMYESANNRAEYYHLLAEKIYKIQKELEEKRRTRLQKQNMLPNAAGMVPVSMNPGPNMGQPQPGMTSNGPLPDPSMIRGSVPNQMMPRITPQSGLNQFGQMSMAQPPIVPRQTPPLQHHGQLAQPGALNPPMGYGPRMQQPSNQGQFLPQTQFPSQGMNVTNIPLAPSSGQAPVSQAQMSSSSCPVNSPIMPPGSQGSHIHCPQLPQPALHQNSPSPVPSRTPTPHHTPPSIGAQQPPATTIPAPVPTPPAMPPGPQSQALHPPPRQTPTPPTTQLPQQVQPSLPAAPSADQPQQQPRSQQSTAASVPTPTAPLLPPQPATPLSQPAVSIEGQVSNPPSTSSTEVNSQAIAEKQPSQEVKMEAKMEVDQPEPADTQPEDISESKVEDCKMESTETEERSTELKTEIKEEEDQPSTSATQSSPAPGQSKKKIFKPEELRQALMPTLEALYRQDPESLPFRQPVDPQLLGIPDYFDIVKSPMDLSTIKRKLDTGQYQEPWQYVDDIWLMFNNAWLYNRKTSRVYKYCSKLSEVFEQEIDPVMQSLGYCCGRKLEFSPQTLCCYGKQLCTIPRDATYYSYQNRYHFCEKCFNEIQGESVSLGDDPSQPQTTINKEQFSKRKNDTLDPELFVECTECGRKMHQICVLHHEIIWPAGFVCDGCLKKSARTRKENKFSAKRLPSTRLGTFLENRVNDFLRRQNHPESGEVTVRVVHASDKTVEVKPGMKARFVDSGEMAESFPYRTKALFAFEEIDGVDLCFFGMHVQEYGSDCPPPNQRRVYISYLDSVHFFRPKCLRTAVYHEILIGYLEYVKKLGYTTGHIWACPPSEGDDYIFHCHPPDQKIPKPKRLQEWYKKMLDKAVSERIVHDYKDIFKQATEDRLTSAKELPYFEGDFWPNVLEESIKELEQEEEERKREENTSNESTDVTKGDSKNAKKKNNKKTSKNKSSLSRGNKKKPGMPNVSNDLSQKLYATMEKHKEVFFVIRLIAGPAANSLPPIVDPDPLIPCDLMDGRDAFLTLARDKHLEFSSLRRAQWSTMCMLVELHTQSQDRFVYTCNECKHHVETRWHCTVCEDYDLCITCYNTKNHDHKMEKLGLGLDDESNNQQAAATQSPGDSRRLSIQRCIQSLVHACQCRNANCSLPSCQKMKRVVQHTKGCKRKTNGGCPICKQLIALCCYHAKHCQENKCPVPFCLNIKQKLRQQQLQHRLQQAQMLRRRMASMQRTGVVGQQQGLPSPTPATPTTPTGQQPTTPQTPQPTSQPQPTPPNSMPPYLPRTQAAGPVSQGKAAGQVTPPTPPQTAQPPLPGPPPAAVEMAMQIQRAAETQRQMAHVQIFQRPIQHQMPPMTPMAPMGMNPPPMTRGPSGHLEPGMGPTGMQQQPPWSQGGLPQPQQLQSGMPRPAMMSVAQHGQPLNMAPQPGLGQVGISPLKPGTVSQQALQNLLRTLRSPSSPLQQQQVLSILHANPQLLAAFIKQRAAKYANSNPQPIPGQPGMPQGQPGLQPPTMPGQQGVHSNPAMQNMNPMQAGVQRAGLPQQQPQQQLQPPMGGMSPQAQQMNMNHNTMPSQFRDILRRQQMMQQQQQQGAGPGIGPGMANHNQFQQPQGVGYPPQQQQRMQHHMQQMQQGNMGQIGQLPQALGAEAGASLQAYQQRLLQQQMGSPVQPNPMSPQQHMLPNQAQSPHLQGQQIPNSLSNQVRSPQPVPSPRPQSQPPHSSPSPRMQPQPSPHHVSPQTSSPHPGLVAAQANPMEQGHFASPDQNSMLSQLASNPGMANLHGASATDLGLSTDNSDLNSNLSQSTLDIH
T1 sequence (Q96SW2 whole entry partner): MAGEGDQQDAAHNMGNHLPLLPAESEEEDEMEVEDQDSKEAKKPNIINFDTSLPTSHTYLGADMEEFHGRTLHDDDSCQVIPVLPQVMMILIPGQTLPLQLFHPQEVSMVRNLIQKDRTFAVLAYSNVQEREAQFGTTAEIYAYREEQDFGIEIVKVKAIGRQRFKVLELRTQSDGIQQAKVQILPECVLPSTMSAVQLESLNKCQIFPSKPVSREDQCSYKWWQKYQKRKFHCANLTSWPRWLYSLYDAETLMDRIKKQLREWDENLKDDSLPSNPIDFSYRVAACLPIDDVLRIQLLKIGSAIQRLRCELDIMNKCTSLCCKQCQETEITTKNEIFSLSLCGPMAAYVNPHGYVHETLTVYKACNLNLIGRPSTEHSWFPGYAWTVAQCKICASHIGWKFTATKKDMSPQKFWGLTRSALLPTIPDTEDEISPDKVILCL
Test: PROTAC activity at CRBN/p300 in human SK-HEP1 cells assessed as induction of p300 protein degradation at 0.01 uM incubated for 24 hrs relative to control
Assay type: cell-based
Settings: not given

Compared with `Cc1noc(C)c1-c1ccc2c(c1)nc([C@@H]1CCCC(=O)N1c1ccc(F)c(F)c1)n2C1CCN(C2CN(c3cccc4c3C(=O)N(C3CCC(=O)NC3=O)C4=O)C2)CC1` (some centres not stated), `Cc1noc(C)c1-c1ccc2c(c1)nc([C@@H]1CCCC(=O)N1c1ccc(F)c(F)c1)n2C1CN(C2CN(c3cccc4c3C(=O)N(C3CCC(=O)NC3=O)C4=O)C2)C1` (some centres not stated) is higher in Activity: under 1% for the first, 3% for the second.

Compared with `Cc1noc(C)c1-c1ccc2c(c1)nc([C@@H]1CCCC(=O)N1c1ccc(F)c(F)c1)n2C1CCN(c2ccc3c(c2)C(=O)N(C2CCC(=O)NC2=O)C3=O)CC1` (some centres not stated), `Cc1noc(C)c1-c1ccc2c(c1)nc([C@@H]1CCCC(=O)N1c1ccc(F)c(F)c1)n2C1CCN(C2CCN(c3ccc4c(c3)C(=O)N(C3CCC(=O)NC3=O)C4=O)CC2)CC1` (some centres not stated) is higher in Activity: 6% for the first, 9% for the second.

`Cc1noc(C)c1-c1ccc2c(c1)nc([C@@H]1CCCC(=O)N1c1ccc(F)c(F)c1)n2C1CCN(C(=O)CCOCCNc2ccc3c(c2)C(=O)N(C2CCC(=O)NC2=O)C3=O)CC1` (some centres not stated) and `Cc1noc(C)c1-c1ccc2c(c1)nc([C@@H]1CCCC(=O)N1c1ccc(F)c(F)c1)n2C1CCN(C(=O)CCOCCOCCNc2ccc3c(c2)C(=O)N(C2CCC(=O)NC2=O)C3=O)CC1` (some centres not stated) cannot be ordered by Activity: under 1% for the first, under 1% for the second.

`Cc1noc(C)c1-c1ccc2c(c1)nc([C@@H]1CCCC(=O)N1c1ccc(F)c(F)c1)n2C1CCN(C(=O)CNc2ccc3c(c2)C(=O)N(C2CCC(=O)NC2=O)C3=O)CC1` (some centres not stated) and `Cc1noc(C)c1-c1ccc2c(c1)nc([C@@H]1CCCC(=O)N1c1ccc(F)c(F)c1)n2C1CCN(C(=O)CCOCCOCCNc2cccc3c2C(=O)N(C2CCC(=O)NC2=O)C3=O)CC1` (some centres not stated) cannot be ordered by Activity: under 1% for the first, under 1% for the second.

Molecule `Cc1noc(C)c1-c1ccc2c(c1)nc([C@@H]1CCCC(=O)N1c1ccc(F)c(F)c1)n2C1CCN(C(=O)CCOCCOCCOCCOCCNc2cccc3c2C(=O)N(C2CCC(=O)NC2=O)C3=O)CC1` (some centres not stated) has an Activity of under 1%.

Target: T1, Protein cereblon/Histone acetyltransferase p300
Test: PROTAC activity at CRBN/p300 in human SK-HEP1 cells assessed as induction of p300 protein degradation at 0.1 uM incubated for 24 hrs relative to control
Assay type: cell-based
Settings: not given

`Cc1noc(C)c1-c1ccc2c(c1)nc([C@@H]1CCCC(=O)N1c1ccc(F)c(F)c1)n2C1CCN(C2CN(c3cccc4c3C(=O)N(C3CCC(=O)NC3=O)C4=O)C2)CC1` (some centres not stated) and `Cc1noc(C)c1-c1ccc2c(c1)nc([C@@H]1CCCC(=O)N1c1ccc(F)c(F)c1)n2C1CN(C2CN(c3cccc4c3C(=O)N(C3CCC(=O)NC3=O)C4=O)C2)C1` (some centres not stated) cannot be ordered by Activity: under 1% for the first, under 1% for the second.

First: Cc1noc(C)c1-c1ccc2c(c1)nc([C@@H]1CCCC(=O)N1c1ccc(F)c(F)c1)n2C1CCN(c2ccc3c(c2)C(=O)N(C2CCC(=O)NC2=O)C3=O)CC1 (some centres not stated)
Second: Cc1noc(C)c1-c1ccc2c(c1)nc([C@@H]1CCCC(=O)N1c1ccc(F)c(F)c1)n2C1CCN(C2CCN(c3ccc4c(c3)C(=O)N(C3CCC(=O)NC3=O)C4=O)CC2)CC1 (some centres not stated)
The Activity of the first is higher: 9% for the first, 5% for the second.

`Cc1noc(C)c1-c1ccc2c(c1)nc([C@@H]1CCCC(=O)N1c1ccc(F)c(F)c1)n2C1CCN(C(=O)CCOCCNc2ccc3c(c2)C(=O)N(C2CCC(=O)NC2=O)C3=O)CC1` (some centres not stated) and `Cc1noc(C)c1-c1ccc2c(c1)nc([C@@H]1CCCC(=O)N1c1ccc(F)c(F)c1)n2C1CCN(C(=O)CCOCCOCCNc2ccc3c(c2)C(=O)N(C2CCC(=O)NC2=O)C3=O)CC1` (some centres not stated) cannot be ordered by Activity: under 1% for the first, under 1% for the second.

`Cc1noc(C)c1-c1ccc2c(c1)nc([C@@H]1CCCC(=O)N1c1ccc(F)c(F)c1)n2C1CCN(C(=O)CNc2ccc3c(c2)C(=O)N(C2CCC(=O)NC2=O)C3=O)CC1` (some centres not stated) and `Cc1noc(C)c1-c1ccc2c(c1)nc([C@@H]1CCCC(=O)N1c1ccc(F)c(F)c1)n2C1CCN(C(=O)CCOCCOCCNc2cccc3c2C(=O)N(C2CCC(=O)NC2=O)C3=O)CC1` (some centres not stated) are the same in Activity: 2% for the first, 2% for the second.

Work on `Cc1noc(C)c1-c1ccc2c(c1)nc([C@@H]1CCCC(=O)N1c1ccc(F)c(F)c1)n2C1CCN(C(=O)CCOCCOCCOCCOCCNc2cccc3c2C(=O)N(C2CCC(=O)NC2=O)C3=O)CC1` (some centres not stated) yielded an Activity of under 1%.

Target: T1, Protein cereblon/Histone acetyltransferase p300
Test: PROTAC activity at CRBN/p300 in human SK-HEP1 cells assessed as induction of p300 protein degradation at 1 uM incubated for 24 hrs relative to control
Assay type: cell-based
Settings: not given

Going from `Cc1noc(C)c1-c1ccc2c(c1)nc([C@@H]1CCCC(=O)N1c1ccc(F)c(F)c1)n2C1CCN(C2CN(c3cccc4c3C(=O)N(C3CCC(=O)NC3=O)C4=O)C2)CC1` (some centres not stated) to `Cc1noc(C)c1-c1ccc2c(c1)nc([C@@H]1CCCC(=O)N1c1ccc(F)c(F)c1)n2C1CN(C2CN(c3cccc4c3C(=O)N(C3CCC(=O)NC3=O)C4=O)C2)C1` (some centres not stated), the Activity rises from 4% to 23%.

First: Cc1noc(C)c1-c1ccc2c(c1)nc([C@@H]1CCCC(=O)N1c1ccc(F)c(F)c1)n2C1CCN(c2ccc3c(c2)C(=O)N(C2CCC(=O)NC2=O)C3=O)CC1 (some centres not stated)
Second: Cc1noc(C)c1-c1ccc2c(c1)nc([C@@H]1CCCC(=O)N1c1ccc(F)c(F)c1)n2C1CCN(C2CCN(c3ccc4c(c3)C(=O)N(C3CCC(=O)NC3=O)C4=O)CC2)CC1 (some centres not stated)
The Activity of the first is lower: 32% for the first, 38% for the second.

Going from `Cc1noc(C)c1-c1ccc2c(c1)nc([C@@H]1CCCC(=O)N1c1ccc(F)c(F)c1)n2C1CCN(C(=O)CCOCCNc2ccc3c(c2)C(=O)N(C2CCC(=O)NC2=O)C3=O)CC1` (some centres not stated) to `Cc1noc(C)c1-c1ccc2c(c1)nc([C@@H]1CCCC(=O)N1c1ccc(F)c(F)c1)n2C1CCN(C(=O)CCOCCOCCNc2ccc3c(c2)C(=O)N(C2CCC(=O)NC2=O)C3=O)CC1` (some centres not stated), the Activity rises from 18% to 29%.

Compared with `Cc1noc(C)c1-c1ccc2c(c1)nc([C@@H]1CCCC(=O)N1c1ccc(F)c(F)c1)n2C1CCN(C(=O)CNc2ccc3c(c2)C(=O)N(C2CCC(=O)NC2=O)C3=O)CC1` (some centres not stated), `Cc1noc(C)c1-c1ccc2c(c1)nc([C@@H]1CCCC(=O)N1c1ccc(F)c(F)c1)n2C1CCN(C(=O)CCOCCOCCNc2cccc3c2C(=O)N(C2CCC(=O)NC2=O)C3=O)CC1` (some centres not stated) is higher in Activity: 3% for the first, 25% for the second.

Work on `Cc1noc(C)c1-c1ccc2c(c1)nc([C@@H]1CCCC(=O)N1c1ccc(F)c(F)c1)n2C1CCN(C(=O)CCOCCOCCOCCOCCNc2cccc3c2C(=O)N(C2CCC(=O)NC2=O)C3=O)CC1` (some centres not stated) yielded an Activity of 49%.

Test system: SK-HEP1
Test: Antiproliferative activity against human SK-HEP1 cells assessed as inhibition of cell growth incubated for 5 days by CCK-8 assay
Assay type: functional, cell-based
Settings: SK-HEP1, 120 h

`CC(=O)N1CCC(n2c([C@@H]3CCCC(=O)N3c3ccc(F)c(F)c3)nc3cc(-c4c(C)noc4C)ccc32)CC1` gave an IC50 of 4.36 µM.

Test system: not listed separately
Test: Antiproliferative activity against human JHH7 cells assessed as inhibition of cell growth incubated for 5 days by CCK-8 assay
Assay type: functional, cell-based
Settings: JHH7, 120 h

In the case of `CC(=O)N1CCC(n2c([C@@H]3CCCC(=O)N3c3ccc(F)c(F)c3)nc3cc(-c4c(C)noc4C)ccc32)CC1`, the IC50 is reported as over 20 µM.

Test system: SK-HEP1
Test: Induction of cell cycle arrest at G2/M phase in human SK-HEP1 cells assessed as SKP2 protein level at 2 uM incubated for 24 hrs by immunoblotting analysis (reference value: 100%)
Assay type: functional
Settings: not given

With `CC(=O)N1CCC(n2c([C@@H]3CCCC(=O)N3c3ccc(F)c(F)c3)nc3cc(-c4c(C)noc4C)ccc32)CC1` the Activity was 117%.

Test system: SK-HEP1
Test: Induction of cell cycle arrest at G2/M phase in human SK-HEP1 cells assessed as reduction in CDK6 protein level at 2 uM incubated for 24 hrs by immunoblotting analysis (reference value: 100%)
Assay type: functional
Design: scale not given: the % may be the effect or the level left
Settings: not given

With `CC(=O)N1CCC(n2c([C@@H]3CCCC(=O)N3c3ccc(F)c(F)c3)nc3cc(-c4c(C)noc4C)ccc32)CC1` the Activity was 101%.

Test system: Mus musculus
Test: In vivo PROTAC activity at CRBN/p300 in nude mouse xenografted with human SK-HEP1 cells assessed as reduction in p300 protein level in tumor at 50 mg/kg, ip measured after 24 hrs by immunoblotting analysis
Assay type: functional, organism-based
Settings: not given

In the case of `CC(=O)N1CCC(n2c([C@@H]3CCCC(=O)N3c3ccc(F)c(F)c3)nc3cc(-c4c(C)noc4C)ccc32)CC1`, the Activity is reported as “inactive”.

Target: Protein cereblon/CREB-binding protein (Homo sapiens) (UniProt Q92793+Q96SW2)
Test: In vivo PROTAC activity at CRBN/CBP in nude mouse xenografted with human SK-HEP1 cells assessed as reduction in CBP protein level in tumor at 50 mg/kg, ip measured after 24 hrs by immunoblotting analysis
Assay type: functional, organism-based
Settings: not given

With `CC(=O)N1CCC(n2c([C@@H]3CCCC(=O)N3c3ccc(F)c(F)c3)nc3cc(-c4c(C)noc4C)ccc32)CC1` the Activity was “inactive”.

Target: T1, Protein cereblon/Histone acetyltransferase p300
Test: PROTAC activity at CRBN/p300 in human SK-HEP1 cells assessed as increase in protein ubiquitination at 2 uM incubated for 24 hrs by immunoblotting analysis (reference value: 100%)
Assay type: cell-based
Settings: not given

In the case of `CC(=O)N1CCC(n2c([C@@H]3CCCC(=O)N3c3ccc(F)c(F)c3)nc3cc(-c4c(C)noc4C)ccc32)CC1`, the Activity is reported as 105%.

Target: T1, Protein cereblon/Histone acetyltransferase p300
Test: PROTAC activity at CRBN/p300 in human SK-HEP1 cells assessed as increase in protein ubiquitination at 2 uM pretreated with MG132 at 1 uM followed by compound treatment and further incubated for 24 hrs by immunoblotting analysis (reference value: 100%)
Assay type: cell-based
Settings: not given

For `CC(=O)N1CCC(n2c([C@@H]3CCCC(=O)N3c3ccc(F)c(F)c3)nc3cc(-c4c(C)noc4C)ccc32)CC1`, the Activity was 97%.
